The values below come from article PMC4583781, “Heteropentanuclear Oxalato-Bridged nd–4f (n=4, 5) Metal Complexes with NO Ligand: Synthesis, Crystal Structures, Aqueous Stability and Antiproliferative Activity” (Chemistry (Weinheim an Der Bergstrasse, Germany), 2015).

In one data set the test system is DLD-1 colon cancer model. Further details: method as in PMID 16343446, PMID 17445775. The conditions noted are these: cited from earlier work.
The subject of data set [1] is MRC-5 cells (normal human fetal lung fibroblast). In words: MTT assay, cytotoxicity in noncancerous MRC-5 cells. To be noted: 48 h treatment, 5000 cells per well, read-out: IC50 MRC-5 (5000 c per w). Type of data set: cell-based. On the procedure: (§1) Human cervical carcinoma (HeLa), human alveolar basal adenocarcinoma (A549), and normal human fetal lung fibroblast cell line (MRC-5) were maintained as monolayer culture in the Roswell Park Memorial Institute (RPMI) 1640 nutrient medium (Sigma Chemicals Co, USA). RPMI 1640 nutrient medium was prepared in sterile ionized water, supplemented with penicillin (192 IU mL^−1), streptomycin (200 μg mL^−1), 4-(2-hydroxyethyl)piperazine-1-ethanesulfonic acid (HEPES) (25 mM), L-glutamine (3 mM) and 10 % of heat-inactivated fetal calf serum (FCS; pH 7.2). The cells were grown at 37 °C in 5 % CO2 and humidified air atmosphere, by twice weekly subculture.
(§2) Antiproliferative activity of the ruthenium and osmium complexes was determined using 3-(4,5-dimethylthiazol-yl)-2,5-diphenyltetrazolium bromide (MTT, Sigma–Aldrich) assay.[49] Cells were seeded into 96-well cell culture plates (Thermo Scientific Nunc), at a cell density of 3000 cells per well (HeLa), 7000 cells per well (A549), and 5000 cells per well (MRC-5), in 100 μL of culture medium. After 24 h of growth, cells were exposed to the serial dilutions of the tested complexes. Complexes were dissolved in 1 % DMSO: complex 1 at a concentration of 4 mM, complexes 2–5 at a concentration of 1 mM, complexes 6–9 at a concentration of 0.6 mM, as stocks immediately prior use, and afterwards diluted with nutrient medium to desired final concentrations (in range up to 200 μM). Each concentration was tested in triplicate. After incubation periods of 48 h, 20 μL of MTT solutions (5 mg mL^−1 in phosphate buffer solution, pH 7.2) were added to each well. Samples were incubated for 4 h at 37 °C, with 5 % CO2 in a humidified atmosphere. Formazan crystals were dissolved in 100 μL of 10 % sodium dodecyl sulfate (SDS). Absorbances were recorded after 24 h, on an ELISA reader (ThermoLabsystems Multiskan EX 200–240 V), at the wavelength of 570 nm. The IC50 values, defined as the concentrations of the compound causing 50 % cell growth inhibition, were estimated from the dose-response curves.
(§3) The antiproliferative activity of the ruthenium and osmium lanthanide complexes 1–9 was evaluated for 48 h of continuous drug action, using colorimetric MTT assay. The study was performed in two human neoplastic cell lines (HeLa, A549), and human fetal lung fibroblast cell line (MRC-5), which was used as noncancerous model for in vitro toxicity evaluation. The results are shown in Table 5 in terms of IC50 values for 48 h incubation period. IC50 values are calculated as mean values obtained from two to three independent experiments and are presented with their standard deviations.
For orientation: Tetrazolium dyes change colour on reduction, which living cells bring about.

Data set [2] relates to HeLa cells (human cervical carcinoma). In words: MTT assay, antiproliferative activity in HeLa cells. Type of data set: cell-based. To be noted: 48 h treatment, 3000 cells per well, read-out: IC50 HeLa (3000 c per w). On the procedure: as §1, §2, §3
Data set [3] concerns A549 cells (human alveolar basal adenocarcinoma). Briefly: MTT assay, antiproliferative activity in A549 cells. Type of data set: cell-based. The conditions noted are these: 48 h treatment, 7000 cells per well, read-out: IC50 A549 (7000 c per w). On the procedure: as §1, §2, §3
A short description of data set [4]: Stability of pentanuclear assembly in aqueous solution, IR comparison of residue. Type of data set: physicochemical. The conditions noted are these: aqueous solution evaporated to dryness after standing 24 h in air. On the procedure:
To exclude immediate dissociation of the pentanuclear assembly with release of a metal–oxalate fragment an aqueous solution of 5 was evaporated to dryness after standing for 24 h in air and the IR spectra of the residue and freshly prepared compound 5 were compared.

A short description of data set [5]: Stability in aqueous solution by UV/Vis spectroscopy. Type of data set: physicochemical. The conditions noted are these: UV/Vis spectroscopy over 96 h. The procedure:
Elemental analyses were performed by the microanalytical service of the Faculty of Chemistry of the University of Vienna on a Perkin–Elmer 2400 CHN Elemental Analyzer. UV/Vis spectra were recorded at 25 °C using a Perkin–Elmer Lambda 650 spectrometer equipped with an optical cell of 1 cm path-length in the wavelength range of 200 to 800 nm in combination with a Perkin–Elmer PTP-6 Peltier System. Electrospray ionization (ESI) mass spectrometry measurements were conducted on a Bruker HCT ion trap (Bruker Daltonics GmbH) by using methanol as a solvent. MIR spectra were recorded on a Perkin–Elmer 370 FTIR 2000 instrument using an ATR (attenuated total reflection) unit in the range of 4000–400 cm^−1. Phosphorescence emission spectra were recorded with a Horiba FluoroMax-4 spectrofluorimeter and the data were processed using the FluorEssence v3.5 software package.
The stability of the heteropentanuclear complexes 5 and 9 in aqueous solution has been investigated by UV/Vis spectroscopy over 96 h.

For data set [6], the system named is cellular DNA of A549 cells. In words: Ru/Os binding to cellular DNA by ICP-MS. Type of data set: cell-based, human. To be noted: 6 h treatment, 0.5×IC50, ICP-MS.
A further data set concerns A549 cells. Briefly: Total intracellular Ru/Os accumulation by ICP-MS. Type of data set: cell-based, human. To be noted: 6 and 24 h, 0.5×IC50 of complexes 4 and 8, ICP-MS, Ru (4) relative to Os (8).
Data set [7] has as its system cellular proteins of A549 cells. Briefly: Ru/Os binding to cellular proteins by ICP-MS. Type of data set: cell-based, human. To be noted: 24 h versus 6 h, 0.5×IC50, ICP-MS.

As for `N#C[S-].N#C[S-].N#C[S-].[La+3].c1cnc2c(c1)ccc1cccnc12.c1cnc2c(c1)ccc1cccnc12.c1cnc2c(c1)ccc1cccnc12` [La(phen)3(NCS)3], in the data set on DLD-1 colon cancer model, the “Efficacy against DLD-1 colon cancer model in vivo” value is “highly effective”.

One may read the IC50 as the concentration needed to halve the response being measured. (nBu4N)2[RuCl3(ox)(NO)] [complex 1]: the IC50 in data set [1] is 18.1 ± 6.5 µM; in [2], 55.9 ± 5.6 µM; in [3] it was 55 ± 1.6 µM.

“(nBu4N)5[Dy(EtOH){RuCl3(μ-ox)(NO)}4] [complex 5]”: the figures for the IC50 in data set [1], in data set [2] and in data set [3] were 13.2 ± 0.4 µM, 20 ± 2.1 µM and 47 ± 6.7 µM, respectively. Moreover, the “IR spectra of residue versus freshly prepared compound” value in data set [4] is listed as “no differences in the spectra observed”. Also, in data set [5], the “Stability in aqueous solution (change of optical spectra)” value is given as “no change in the optical spectra observed”.

As for “(nBu4N)5[Gd(EtOH){RuCl3(μ-ox)(NO)}4] [complex 3]”, the IC50 in data set [1] turned out to be 11.1 ± 0.1 µM; in data set [2], 29.1 ± 0.8 µM; in [3], 26.5 ± 4 µM.

With “(nBu4N)5[Tb(EtOH){RuCl3(μ-ox)(NO)4}] [complex 4]”, the IC50 in [1] stood at 11.9 ± 0.4 µM; in [2], 20 ± 2.4 µM; in [3] it was 22.4 ± 3.1 µM. The “Metal (Ru/Os) bound to cellular DNA” value in data set [6] is 63.4(±1.8) pg metal μg^−1 DNA. In the data set with A549 cells, the “Total intracellular accumulation of ruthenium versus osmium” value was “five- to eightfold greater”. Besides, the “Change of metal-protein binding with treatment prolongation” value in [7] is “increased to a great extent”.

For the molecule “(nBu4N)5[Y{OsCl3(μ-ox)(NO)}4] [complex 6]”, the IC50 in [1] was 115 ± 10.7 µM; in data set [2], 152 ± 24 µM; in data set [3], over 200 µM.

“(nBu4N)5[Y{RuCl3(μ-ox)(NO)}4] [complex 2]”: the IC50 amounted to 12 ± 0.3 µM in [1], 17.9 ± 0.4 µM in data set [2] and 56.3 ± 1.1 µM in data set [3].
